Measured values published in paper PMC9005681, “Use of AD Informer Set compounds to explore validity of novel targets in Alzheimer's disease pathology” (Alzheimer's & Dementia : Translational Research & Clinical …, 2022).

Columns and labels:
Assay in all cases: PDSP GPCR panel primary binding assays at 10 μM
[1] = target: T1, cloned human or rodent CNS receptors, channels, and transporters (PDSP panel) (Homo sapiens, UniProt P08173); conditions: Receptor M4, primary assay, 10 μM; for Mean %: mean of Inhibition 1-4
T1 construct: expressed in transfected cells
T1 sequence (P08173 1-479): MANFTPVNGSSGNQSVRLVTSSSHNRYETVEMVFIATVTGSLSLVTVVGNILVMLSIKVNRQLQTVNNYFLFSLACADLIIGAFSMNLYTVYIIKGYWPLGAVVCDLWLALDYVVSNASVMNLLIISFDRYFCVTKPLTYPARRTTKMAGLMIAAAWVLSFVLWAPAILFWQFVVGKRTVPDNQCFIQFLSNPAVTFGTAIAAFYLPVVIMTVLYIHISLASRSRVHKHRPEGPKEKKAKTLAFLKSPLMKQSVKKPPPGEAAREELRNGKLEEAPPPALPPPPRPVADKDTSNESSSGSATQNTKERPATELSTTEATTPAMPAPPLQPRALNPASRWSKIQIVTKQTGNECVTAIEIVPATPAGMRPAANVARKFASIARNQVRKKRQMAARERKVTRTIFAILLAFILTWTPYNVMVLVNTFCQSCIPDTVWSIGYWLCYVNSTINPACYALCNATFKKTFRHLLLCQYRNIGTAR
Method in brief: (§1)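 Each compound is first screened once at 10 μM, in quadruplicate, for radioligand displacement. Where mean displacement passes 50%, an 11-point dose-response in triplicate follows at that target, except at H3, PBR and GABAA.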

[2] = target: T2, cloned human or rodent CNS receptors, channels, and transporters (PDSP panel) (Homo sapiens, UniProt P18089); conditions: Receptor Alpha2B, primary assay, 10 μM; for Mean %: mean of Inhibition 1-4
T2 construct: expressed in transfected cells
T2 sequence (P18089 1-450): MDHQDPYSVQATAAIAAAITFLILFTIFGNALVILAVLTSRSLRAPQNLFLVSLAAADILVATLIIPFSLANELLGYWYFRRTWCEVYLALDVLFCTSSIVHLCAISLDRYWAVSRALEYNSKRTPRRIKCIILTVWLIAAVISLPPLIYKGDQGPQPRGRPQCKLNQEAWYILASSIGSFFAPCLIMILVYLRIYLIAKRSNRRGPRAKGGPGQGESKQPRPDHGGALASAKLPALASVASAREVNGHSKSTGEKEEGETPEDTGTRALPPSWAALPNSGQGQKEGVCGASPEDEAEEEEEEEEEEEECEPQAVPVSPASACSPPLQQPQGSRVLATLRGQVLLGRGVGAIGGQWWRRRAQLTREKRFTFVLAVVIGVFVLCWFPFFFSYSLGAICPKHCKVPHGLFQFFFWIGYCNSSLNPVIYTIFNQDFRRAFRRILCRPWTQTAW
Method in brief: as §1

[3] = target: T3, cloned human or rodent CNS receptors, channels, and transporters (PDSP panel) (Homo sapiens, UniProt P20309); conditions: Receptor M3, primary assay, 10 μM; for Mean %: mean of Inhibition 1-4
T3 construct: expressed in transfected cells
Method in brief: as §1

[4] = target: T4, cloned human or rodent CNS receptors, channels, and transporters (PDSP panel) (Homo sapiens, UniProt P25100); conditions: Receptor Alpha1D, primary assay, 10 μM; for Mean %: mean of Inhibition 1-4
T4 construct: expressed in transfected cells
T4 sequence (P25100 1-572): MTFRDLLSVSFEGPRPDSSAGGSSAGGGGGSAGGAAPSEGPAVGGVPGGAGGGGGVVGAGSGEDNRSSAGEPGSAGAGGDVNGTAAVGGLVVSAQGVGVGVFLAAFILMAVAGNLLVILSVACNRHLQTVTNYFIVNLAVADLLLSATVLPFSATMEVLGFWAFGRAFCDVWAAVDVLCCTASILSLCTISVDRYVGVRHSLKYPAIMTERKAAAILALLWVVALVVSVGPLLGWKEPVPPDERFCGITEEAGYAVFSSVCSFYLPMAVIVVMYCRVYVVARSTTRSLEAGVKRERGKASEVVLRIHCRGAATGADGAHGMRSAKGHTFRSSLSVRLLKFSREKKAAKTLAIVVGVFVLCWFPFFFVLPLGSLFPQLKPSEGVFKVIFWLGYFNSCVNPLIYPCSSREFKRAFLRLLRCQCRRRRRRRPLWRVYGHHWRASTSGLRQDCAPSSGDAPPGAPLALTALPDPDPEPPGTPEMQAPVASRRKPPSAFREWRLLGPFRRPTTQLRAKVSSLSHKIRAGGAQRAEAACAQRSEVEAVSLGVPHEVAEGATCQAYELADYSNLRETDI
Method in brief: as §1

[5] = target: T5, cloned human or rodent CNS receptors, channels, and transporters (PDSP panel) (Homo sapiens, UniProt P35368); conditions: Receptor Alpha1B, primary assay, 10 μM; for Mean %: mean of Inhibition 1-4
T5 construct: expressed in transfected cells
T5 sequence (P35368 1-520): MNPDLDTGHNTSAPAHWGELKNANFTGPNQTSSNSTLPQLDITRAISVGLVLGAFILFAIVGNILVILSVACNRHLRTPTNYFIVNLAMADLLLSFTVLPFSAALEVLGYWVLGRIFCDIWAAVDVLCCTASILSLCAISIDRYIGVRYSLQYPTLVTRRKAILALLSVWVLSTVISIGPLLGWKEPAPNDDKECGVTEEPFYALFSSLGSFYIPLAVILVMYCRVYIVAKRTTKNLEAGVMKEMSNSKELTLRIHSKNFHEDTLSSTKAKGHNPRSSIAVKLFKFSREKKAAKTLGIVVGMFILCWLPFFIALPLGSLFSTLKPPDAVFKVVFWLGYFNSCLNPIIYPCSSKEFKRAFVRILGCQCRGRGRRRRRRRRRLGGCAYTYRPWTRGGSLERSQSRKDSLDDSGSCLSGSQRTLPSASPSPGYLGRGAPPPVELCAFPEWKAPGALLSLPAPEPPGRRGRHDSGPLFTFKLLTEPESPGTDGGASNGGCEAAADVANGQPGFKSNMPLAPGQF
Method in brief: as §1

T3 sequence (P20309 whole entry): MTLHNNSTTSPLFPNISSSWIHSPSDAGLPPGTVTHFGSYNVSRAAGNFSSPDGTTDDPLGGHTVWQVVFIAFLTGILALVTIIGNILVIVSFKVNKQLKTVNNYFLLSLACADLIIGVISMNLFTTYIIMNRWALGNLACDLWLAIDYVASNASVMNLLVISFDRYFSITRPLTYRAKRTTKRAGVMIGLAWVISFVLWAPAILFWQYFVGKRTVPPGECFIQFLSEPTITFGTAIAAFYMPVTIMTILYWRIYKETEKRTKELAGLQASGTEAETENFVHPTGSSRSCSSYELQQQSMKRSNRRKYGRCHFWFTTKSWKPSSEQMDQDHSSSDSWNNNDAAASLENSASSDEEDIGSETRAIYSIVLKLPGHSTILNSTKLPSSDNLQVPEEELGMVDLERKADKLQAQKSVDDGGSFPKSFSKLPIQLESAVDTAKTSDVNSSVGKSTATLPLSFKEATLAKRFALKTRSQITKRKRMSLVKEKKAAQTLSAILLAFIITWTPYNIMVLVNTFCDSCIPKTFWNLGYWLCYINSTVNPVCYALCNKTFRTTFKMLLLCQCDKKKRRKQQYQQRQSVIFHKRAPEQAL

CCCCNc1ncc2c(-c3ccc(CN4CCN(C)CC4)cc3)cn([C@H]3CC[C@H](O)CC3)c2n1 [UNC2025C, UNC2025]
Inhibition 1 [1]: 21.02% | Inhibition 2 [1]: 3.79% | Inhibition 3 [1]: -16.19% | Inhibition 4 [1]: 18.49% | Mean % [1]: 6.78% | Inhibition 1 [2]: 27.09% | Inhibition 2 [2]: 28.85% | Inhibition 3 [2]: -0.55% | Inhibition 4 [2]: 53.34% | Mean % [2]: 27.18% | Inhibition 1 [3]: -7.29% | Inhibition 2 [3]: -5.9% | Inhibition 3 [3]: -6.87% | Inhibition 4 [3]: 2.81% | Mean % [3]: -4.31% | Inhibition 1 [4]: 50.98% | Inhibition 2 [4]: 57.37% | Inhibition 3 [4]: 48.7% | Inhibition 4 [4]: 44.3% | Mean % [4]: 50.34% | Inhibition 1 [5]: 15.21% | Inhibition 2 [5]: -0.72% | Inhibition 3 [5]: -5.53% | Inhibition 4 [5]: -1.63% | Mean % [5]: 1.83%

Cl.NC(=O)c1cnc(N[C@@H]2CCCC[C@@H]2N)nc1Nc1cccc(-n2nccn2)c1 [UNC10302682A, P505-15 (PRT06207 HCl)]
Inhibition 1 [1]: 24.23% | Inhibition 2 [1]: 6.78% | Inhibition 3 [1]: 21.48% | Inhibition 4 [1]: 18.49% | Mean % [1]: 17.75% | Inhibition 1 [2]: 4.86% | Inhibition 2 [2]: 6.29% | Inhibition 3 [2]: -7.3% | Inhibition 4 [2]: -0.22% | Mean % [2]: 0.91% | Inhibition 1 [3]: 28.46% | Inhibition 2 [3]: 2.32% | Inhibition 3 [3]: 15.74% | Inhibition 4 [3]: 10.41% | Mean % [3]: 14.23% | Inhibition 1 [4]: 22.56% | Inhibition 2 [4]: 13.18% | Inhibition 3 [4]: 20.43% | Inhibition 4 [4]: 14.74% | Mean % [4]: 17.73% | Inhibition 1 [5]: 60.7% | Inhibition 2 [5]: 57.49% | Inhibition 3 [5]: 49.58% | Inhibition 4 [5]: 52.45% | Mean % [5]: 55.06%
